# Laboratory results published in PubChem BioAssay AID504313 (Emory University Molecular Libraries Screening Center, 2011).
# Calls of active or inactive are those of the source. How the calls were made is not given here.
# Biological target: X-box-binding protein 1 (Homo sapiens) (UniProt P17861)
# Assay: XBP1 reporter suppression in cells – counter-screen, dose response (AID 504313);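 further: CHO cells carrying an XBP1 reporter stimulated with tunicamycin; potency is for inhibition of the tunicamycin-induced reporter signal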
# Details: XBP1 reporter cell assay, percent of control
row,SMILES,IC50
1,Cc1ccc(-c2[nH]ncc2/C=N/n2c(COc3ccccc3)nc3ccccc3c2=O)cc1,inactive
2,Cc1ccc(-c2nnc(-c3ccc(NC(=O)Cc4cccs4)cc3)o2)cc1,> 10 µM (inactive)
3,O=C1c2ccccc2C(=O)C1c1nccc2ccccc12,inactive
4,CCCC(=O)N1CCN(c2ccc(NC(=O)c3cc4ccccc4o3)cc2Cl)CC1,inactive
5,Cc1ccc(NC(=O)O/N=C/c2c(C)nn(C(C)(C)C)c2C)cc1Cl,< 0.16 µM
6,CCOc1cc(S(=O)(=O)Nc2ccccc2CC)ccc1Cl,> 10 µM (inactive)
7,O=C1CC(c2ccco2)CC(O)=C1C=Nc1ccccc1-c1ccccc1 (configuration not stated),inactive
8,Cc1ccc(CNCc2cc3c(C(C)(C)C)nn(-c4ccccc4)c3[nH]c2=O)cc1,inactive
9,O=C1C(Cl)=C(N2CCCCC2)C(=O)C(Cl)=C1c1cnc(N2CCCCC2)s1,inactive
10,CC(C)(C)C1C/C(=C/c2ccccn2)C(=O)/C(=C/c2ccccn2)C1 (configuration not stated),0.55 µM
11,O=C1C(N2CCOCC2)=C(n2nnc3ccccc32)C(=O)c2ccccc21,inactive
12,CS(=O)(=O)c1ccc(S(=O)CC(=O)OCc2ccccc2)c([N+](=O)[O-])c1 (configuration not stated),inactive
13,Cc1nn(C(C)(C)C)c(C)c1/C=N/OC(=O)Nc1ccc(Cl)cc1,< 0.16 µM
14,CC(C)(C)c1cc(CN2CCCC(O)C2)c(O)c(C(C)(C)C)c1 (configuration not stated),inactive
15,CN1CCc2c(sc(NC(=O)c3cc4cc([N+](=O)[O-])ccc4s3)c2C(N)=O)C1,> 10 µM (inactive)
16,CCn1c(C)nc2cc(-c3nnc(-c4c(-c5ccccc5)noc4C)o3)ccc21,> 10 µM (inactive)
17,COc1ccc(NC(=O)c2cc3cccc(OC)c3oc2=Nc2ccc(C(=O)O)cc2)cc1OC,inactive
18,O=C(Nc1ccccc1-c1nc2ccccc2[nH]1)c1sc2ccccc2c1Cl,> 10 µM (inactive)
19,OC(c1cccc(OCc2ccccc2)c1)c1nnc(-c2ccccc2)o1 (configuration not stated),> 10 µM (inactive)
20,CC(C)COc1ccc(/C(=N/O)c2ccccc2)cc1,inactive
21,CCCCCCn1c(CN2CCN(Cc3ccccc3)CC2)nc2c1c(=O)n(C)c(=O)n2C,> 10 µM (inactive)
22,COc1ccc([C@H]2Oc3cc(O)cc(O)c3C(=O)C2[C@@H]2C(=O)c3c(O)cc(O)cc3O[C@@H]2c2ccc(OC)cc2)cc1 (some centres not stated),> 10 µM (inactive)

row,SMILES,IC50
1,COc1ccc(NC(=O)/C(Cl)=C(/Cl)S(=O)(=O)Cc2ccc(C)cc2)cn1,inactive
2,CCOc1cc(C(=O)CSc2nnc(CNc3ccc(Cl)cc3)o2)ccc1NC(=O)CC,inactive
3,Cc1cccc(C(=O)c2cnc3ccccc3c2-c2ccccc2)c1,> 10 µM (inactive)
4,Cc1ccc(NC(=O)CSc2nc3ccccc3c3nc(CCc4c(C)n[nH]c4C)nn23)cc1F,> 10 µM (inactive)
5,OC(CNCCc1ccc(C(F)(F)F)cc1)COc1ccc2ccccc2c1 (configuration not stated),inactive
6,CC(C)CCSc1nc2c(c(=O)[nH]c(=O)n2C)n1CCCc1ccccc1,> 10 µM (inactive)
7,CC1CN(S(=O)(=O)c2ccc(C(=O)Nc3nc(-c4cc5ccccc5o4)cs3)cc2)CC(C)O1 (configuration not stated),> 10 µM (inactive)
8,O=C(c1ccc(Cl)cc1)N1CCC(O)(CSc2ccc(Cl)cc2Cl)CC1,> 10 µM (inactive)
9,Cc1cccc(NC(=O)CSc2nc(C)c(CC(=O)c3ccc(Br)cc3)c(C)c2C#N)c1C,inactive
10,CCc1ccc(OCC(=O)NC(NC(=S)Nc2ccc(C)cc2C)C(Cl)(Cl)Cl)cc1 (configuration not stated),inactive
11,O=C(NCc1nc(-c2ccc(C(F)(F)F)cc2)no1)Nc1cc(Cl)cc(Cl)c1,inactive
12,Oc1ccc(/C=N/Nc2nc(N3CCCCCC3)nc(N3CCCCCC3)n2)c(O)c1,> 10 µM (inactive)
13,COc1cc(/C=C2\CC/C(=C\c3cc(OC)c(O)c(OC)c3)C2=O)cc(OC)c1O,inactive
14,CN(C(=O)CCl)C1CCCc2ccccc21 (configuration not stated),inactive
15,O=C1C=CC(=O)N1CCCCCCN1C(=O)C=CC1=O,inactive
16,O=S(=O)(Nc1cc(Sc2ncn[nH]2)c(O)c2ccccc12)c1ccccc1,inactive
17,Cc1ccc(N(c2ncnc(N)c2[N+](=O)[O-])C2CCCCC2)cc1,> 10 µM (inactive)
18,CC(C)=CCc1c(O)cc2oc3c(CC=C(C)C)c(O)c(O)c(CC=C(C)C)c3c(=O)c2c1O,5.24 µM
19,Cc1cc(/C=N/n2cnnc2)c(C)n1-c1ccc(OCc2ccc(Cl)cc2)cc1,0.56 µM
20,Cc1nn(-c2ccccc2Cl)c(Cl)c1/C=N/Nc1nc2ccccc2s1,< 0.16 µM
21,CC(/C=N/n1c(C2CCCCC2)n[nH]c1=S)=C\c1ccccc1,> 10 µM (inactive)
22,O=C(O)c1cccc(COc2ccc(CO)cc2Cl)c1,< 0.16 µM

row,SMILES,IC50
1,Cc1ccc2c(c1)c1c(n2CC(O)Cn2c(C)nc3ccccc32)CCCC1 (configuration not stated),inactive
2,CCOC(=O)CCS(=O)(=O)c1nc(-c2ccccc2)cc(C(F)(F)F)n1,inactive
3,CC(C)(C)c1ccc(C(=O)NC(=S)NNC(=O)c2cccs2)cc1,> 10 µM (inactive)
4,C=CCc1cccc(/C=N/NC(=O)CCCNc2ccc(C)cc2)c1O,inactive
5,CCC(NC(=O)Nc1nnc(C(F)(F)F)s1)(C(F)(F)F)C(F)(F)F,2 µM
6,N#CC1=C(N)N2C(=C(C#N)C1c1cccc(Br)c1)Nc1ccccc12 (configuration not stated),inactive
7,CC(C)C[C@H](NC(=O)c1[nH]cnc1C(=O)N[C@@H](C)C(=O)OC(C)(C)C)C(=O)OC(C)(C)C,2.71 µM
8,C=CS(=O)(=O)c1ccc(Oc2ccc(S(=O)(=O)C=C)cc2)cc1,1 µM
9,S=C(NCCc1ccc(Cl)cc1)Nc1ccc(Cl)cc1Cl,> 10 µM (inactive)
10,Cc1ccc(Cl)cc1NC1=C/C(=N\S(=O)(=O)c2cccs2)c2ccccc2C1=O,inactive
11,CCc1ccc(-c2cc(C(=O)N3N=C(C(F)F)CC3(O)C(F)F)c3ccccc3n2)cc1 (configuration not stated),inactive
12,Nc1c(S(=O)(=O)c2ccccc2)c2nc3ccccc3nc2n1/N=C/c1cccc(O)c1,> 10 µM (inactive)
13,C[C@H](NC(=O)c1[nH]cnc1C(=O)Nc1ccc(Cl)cc1)C(=O)OC(C)(C)C,inactive
14,COc1cccc(-n2nnnc2S(C)(=O)=O)c1,inactive
15,COc1ccc(C(=O)/C=C/C(=O)N(CC(=O)NCCC(C)C)Cc2cccs2)c(O)c1,inactive
16,CC(C)Cn1c(N)c(C(=O)COC(=O)CC23CC4CC(CC(C4)C2)C3)c(=O)n(C)c1=O,inactive
17,COC(=O)[C@]12OC[C@]34C([C@@H](O)[C@@H]1O)[C@]1(C)CC(=O)C(O)=C(C)[C@@H]1C[C@H]3OC(=O)[C@H](O)[C@@H]24 (some centres not stated),inactive
18,O=C(Nc1ccccc1)Nc1cc(OCC(F)(F)F)cc(OCC(F)(F)F)c1,3.95 µM
19,O=C(NC(Nc1nc2ccc([N+](=O)[O-])cc2s1)(C(F)(F)F)C(F)(F)F)c1ccccc1Cl,0.34 µM
20,CCCCCCCCCCCCCCCC[n+]1cccc(C(=O)N(CC)CC)c1,inactive
21,COc1ccc(CC(=O)Nc2cccc(-c3nnc(-c4cccc(C)c4)o3)c2)cc1OC,inactive
22,CN(C)c1ccc(-c2nc3ccccn3c2/N=C/c2ccc(Br)cc2)cc1,> 10 µM (inactive)

row,SMILES,IC50
1,C=CCn1c(CCNC(=O)c2ccc(Cl)c(Cl)c2)nnc1SCCOc1ccc(OC)cc1,> 10 µM (inactive)
2,CCc1ccc(-c2nc(CN3CCC(C(=O)NCCN(CC)c4ccccc4)CC3)c(C)o2)cc1,> 10 µM (inactive)
3,Cc1ccc(NC(=O)CCl)cc1S(=O)(=O)N1CCCCCC1,inactive
4,COc1ccc(C(=O)/C=C/C(=O)N(CC(=O)NC2CCCCC2)Cc2ccc(F)cc2)c(O)c1,2.25 µM
5,Cc1cc(C)c(S(=O)(=O)NCCn2c(C)cc3ccccc32)c(C)c1,> 10 µM (inactive)
6,O=C(N/N=C/c1cccs1)c1cccc(NC(=O)c2ccc(Cl)cc2)c1,inactive
7,O=C(COc1ccc(Cl)cc1Cl)Nc1ccccn1,inactive
8,CCCc1cc(=O)[nH]c(Nc2ccc(N3CCCCC3)cc2)n1,> 10 µM (inactive)
9,CCCCN=c1scc(-c2ccc3c(c2)NC(=O)CO3)n1N=C1CCCC1,inactive
10,COc1ccc(C(=O)NC(=O)Nc2cc(C)ccn2)cc1,inactive
11,FC(F)(F)c1cc(-c2cccs2)nc(-n2cc(Br)cn2)n1,> 10 µM (inactive)
12,CC(C)(C)c1ccc(CN2N=Nc3ccccc3S2(=O)=O)cc1,inactive
13,O=C(COc1ccc(Cl)cc1Cl)NCCC1=CCCCC1,4.23 µM
14,CC1(C)C[C@H]2C=C(C=O)[C@]3(C=O)C[C@]3(C)[C@H]2C1,2.35 µM
15,O=C1NC(=S)S/C1=C\C=C\c1ccc([N+](=O)[O-])o1,inactive
16,NS(=O)(=O)c1ccc(N/N=C2/CCCCC2C2CCCCC2)c([N+](=O)[O-])c1 (configuration not stated),4.48 µM
17,O=c1c(Cl)nc2cc(Cl)ccc2n1CCNc1ncc(C(F)(F)F)cc1Cl,4.7 µM
18,CC(C)(C)c1ccc(S(=O)(=O)NCC(=O)Nc2sc3c(c2C(N)=O)CCCC3)cc1,> 10 µM (inactive)
19,O=C(O)c1cccc(COc2ccccc2Cl)c1,0.91 µM
20,Cc1ccc(S(=O)(=O)/N=C2/C=C(Sc3ncn[nH]3)C(=O)c3ccccc32)cc1,inactive
21,COc1c(CC=C(C)C)cc(C2CC(=O)c3c(O)cc(O)cc3O2)cc1CC=C(C)C (configuration not stated),inactive
